Test results from patent US20050256161A1, “Melanin concentrating hormone receptor antagonists” (priority 2003, published 2005).

Legend:
[1] = biological target: T1, human MCH 1 receptor (hMCH1R) (Homo sapiens, UniProt Q99705); assay: Ligand binding assay (125I native-MCH), hMCH; conditions: hMCH1R expressed in HEK 293, membranes, 0.2 nM 125I native-MCH
T1 construct: expressed in transfected cells; host or cells: HEK 293 (membrane preparation)
Method: (§1) Human embryonic kidney cells (293 total) expressing either human, rat, or mouse MCH receptor were harvested from 150 mm culture dishes using PBS. Spinning at 1500 rpm for 2 minutes initially pelleted cells. The resulting pellet was then homogenized in 15 mL ice cold sucrose buffer (25 mM HEPES, 0.3 M sucrose, pH 7.4) with a motorized, glass fitted, Teflon® homogenizer. The homogenate was centrifuged at 48,000×g at 4° C. for 10 minutes, resuspended in 15 mL assay buffer (25 mM HEPES, 10 mM MgCl2, 0.2% BSA, 0.1 mg/mL STI, 0.1 mg/mL Pefabloc®, 1 μM Phosphoramidon, pH 7.4) with a Tissue-Tearor® (Biospec Products) and centrifuged again at 48,000×g for 10 minutes. The pellet was homogenized for a third time in 15 mL assay buffer using the Tissue-Tearor® and again centrifuged at 48,000×g for 10 minutes. The resulting pellet was resuspended in assay buffer at a wet weight concentration of 10-20 mg/mL.
(§2) Binding assays were determined as described below using mouse, rat or human MCH 1 receptors (mMCH1R, rMCH1R, and hMCH1R, respectively) expressed in HEK 293; IC50 values were calculated.
(§3) Binding assays were performed in 96-well U-bottom plates. Membranes (100 μg tissue) were incubated at 30° C. for 90 minutes in assay buffer with various peptides in the presence of 0.2 nM 125I native-MCH (Perkin-Elmer Life Sciences, Boston, Mass.) in 100 μL total volume. Non-specific binding was assessed in the presence of 1 μM cold native-MCH. The reaction was terminated by rapid filtration through Unfilter-96 GF/C glass fiber filter plates (FilterMate® 196 Harvester, Packard Instrument Co., Meriden, Conn.) pre-soaked in PBS/0.5% BSA, followed by three washes with 300 μL ice-cold water. Bound radioactivity was determined using a TopCount® microplate scintillation and luminescence counter (Packard Instrument Co., Meriden, Conn.). Nonlinear regression analyses of drug concentration curves were performed using GraphPad Prism® (GraphPad Software, Inc., San Diego, Calif.).

rat MCH1 receptor = biological target: T2, rat MCH1 receptor (Rattus norvegicus, UniProt P97639); assay: rMCH FLIPR calcium mobilization functional assay; assay type: cell-based; conditions: CHOK1-Gqi cells
T2 construct: expressed in transfected cells
Method: Pharmacological analyses were conducted using either a HT-PS100 device (Axiom Biotechnologies, San Diego, Calif.), which provides high-resolution dose-response fluorometric measurements of [Ca^++]i mobilization, or using a FLIPR® device (Molecular Devices, Sunnyvale, Calif.).
Materials: Pharmacological analysis was conducted using a FLIPR® device (Molecular Devices, Sunnyvale, Calif.). CHOK1-Gqi cells were stably transfected with the rat MCH1 receptor and maintained under G418 antibiotic pressure. FLIPR® assay buffer consisted of phenol red-free DMEM+2.5 mM probenecid. MCH peptide (Amgen, Inc.) was reconstituted in assay buffer and served as the positive agonist control for all experiments. Test compounds were prepared as 10 mM stocks in 100% DMSO and diluted to a top end working concentration of 10 μM in 96 well black, flat bottom, collagen-I coated plates (Becton Dickinson, Bedford, Mass.).
Methods: CHOK1-Gqi cells stably expressing MCH1R were maintained in Dulbeco's modified Eagle's medium (GIBCO/Life Technologies, Rockville, Md.) supplemented with 2 mM glutamine and 10% dialyzed fetal bovine serum (HyClone, Logan, Utah) at 37° C., 5% CO2. Cells were harvested by 10′ treatment with Versene (GIBCO/Life Technologies) followed by trituration, washing twice with cold (4° C.) hybridoma medium (Serum/Protein free, with L-glutamine, sodium bicarbonate, MOPS buffer) (Sigma-Aldrich Corp, St. Louis, Mo.) and replated onto 96 well black, flat bottom, collagen-I coated plates to a density of 10,000 cells/well. The cells were then loaded with the fluorescent calcium indicator Fura-2 (Molecular Probes, Eugene, Oreg.) at 1.6 μM for 60′ at room temperature. The loaded cells were then washed twice with 90 μl/well of wash buffer (1×HBSS, 20 mM HEPES, 2.5 mM probenecid).
Receptor-stimulated intracellular calcium responses were detected using FLIPR® by monitoring increases in the Fura-2 fluorescence response.
Test compounds were screened for MCH1R activity in the FLIPR® for both agonist and antagonist action. Agonist mode challenges were conducted at a maximum gradient concentration of 1 μM. Antagonist activity was tested by 10 min pre-incubation of cells at a compound concentration of defined to be 300× the EC50 of MCH (typically 1 μM), with subsequent introduction of MCH at a concentration 5-fold of EC50 as determined in preliminary experiments.
Schild experiments were conducted on the FLIPR® for selected compounds by co-administering antagonist compounds together with MCH peptide. Several fixed concentrations of antagonist compounds were prepared in 10-fold increments, and presented to the cells in a gradient of increasing MCH concentration. Values for compound pA2 were calculated by linear regression of MCH EC50s as a function of antagonist concentration.

human MCH receptor = biological target: T3, human MCH receptor (Homo sapiens, UniProt Q99705); assay: hMCH FLIPR calcium mobilization functional assay; assay type: cell-based
T3 construct: expressed in transfected cells

[2] = biological target: T4, rat MCH 1 receptor (rMCH1R) (Rattus norvegicus, UniProt P97639); assay: Ligand binding assay (125I native-MCH), rMCH; conditions: rMCH1R expressed in HEK 293, membranes, 0.2 nM 125I native-MCH
T4 construct: expressed in transfected cells; host or cells: HEK 293 (membrane preparation)
Method: as §1, §2, §3

T4 sequence (P97639 whole entry): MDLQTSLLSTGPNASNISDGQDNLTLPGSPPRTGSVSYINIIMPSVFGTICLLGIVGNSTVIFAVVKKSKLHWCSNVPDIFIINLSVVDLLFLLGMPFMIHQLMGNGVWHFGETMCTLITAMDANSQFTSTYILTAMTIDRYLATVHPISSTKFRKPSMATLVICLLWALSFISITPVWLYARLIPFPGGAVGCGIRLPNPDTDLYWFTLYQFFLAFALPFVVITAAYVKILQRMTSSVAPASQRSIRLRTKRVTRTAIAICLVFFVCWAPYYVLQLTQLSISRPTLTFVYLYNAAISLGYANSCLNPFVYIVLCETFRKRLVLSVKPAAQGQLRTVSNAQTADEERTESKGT
T2 sequence (P97639 whole entry): as above
T1 sequence (Q99705 whole entry): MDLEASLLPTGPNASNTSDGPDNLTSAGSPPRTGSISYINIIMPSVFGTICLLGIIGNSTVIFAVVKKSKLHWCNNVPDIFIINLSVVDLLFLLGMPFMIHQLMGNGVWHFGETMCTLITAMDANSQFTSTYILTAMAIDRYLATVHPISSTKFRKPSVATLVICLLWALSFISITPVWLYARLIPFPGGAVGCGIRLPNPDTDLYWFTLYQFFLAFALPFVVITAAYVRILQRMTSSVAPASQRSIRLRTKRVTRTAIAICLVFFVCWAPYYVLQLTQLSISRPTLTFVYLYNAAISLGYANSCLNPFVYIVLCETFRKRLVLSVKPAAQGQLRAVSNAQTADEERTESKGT
T3 sequence (Q99705 whole entry): as above

Structure (SMILES) | IC50 ([1]; threshold 100 μM or less) [µM] | Ki (rat MCH1 receptor; threshold 100 μM or less) [µM] | Ki (human MCH receptor; threshold 100 nM or less) [µM] | Ki (human MCH receptor; threshold 100 μM or less) [µM] | IC50 ([2]; threshold 100 nM or less) [µM] | IC50 ([2]; threshold 100 μM or less) [µM] | Ki (rat MCH1 receptor; threshold 100 nM or less) [µM] | IC50 ([1]; threshold 100 nM or less) [µM]
O=C(NCCN1CCCC1)c1ccc(Oc2ccccc2)cc1 [Compound 8, 4-(phenyloxy)-N-(2-(1-pyrrolidinyl)ethyl)benzamide] | ≤ 100 |  |  |  |  |  |  | 
CC(=O)Nc1cc(C(=O)NCCN2CCCC2)ccc1Oc1ccc(C)c(C)c1 [Compound 10, 3-acetylamino-4-(3,4-dimethylphenoxy)-N-(2-pyrrolidin-1-yl-ethyl)benzamide] | ≤ 100 |  |  |  |  | ≤ 100 |  | 
Cc1ccc(Oc2ccc(C(=O)NCCN)cc2NC(=O)CCc2ccccc2)cc1C [Compound 20, N-(2-aminoethyl)-4-(3,4-dimethylphenoxy)-3-(3-phenylpropionylamino)benzamide] | ≤ 100 |  |  |  |  |  |  | 
Cc1ccc(Oc2ccc(C(=O)NCCN3CCCC3)cc2NC(=O)Cc2ccccc2)cc1C [Compound 13, 4-(3,4-dimethylphenoxy)-3-phenylacetylarnino-N-(2-pyrrolidin-1-yl-ethyl)benzamide] | ≤ 100 |  |  |  |  | ≤ 100 |  | 
Cc1ccc(Oc2ccc(C(=O)NCCN3CCCC3)cc2NC(=O)/C=C/c2ccccc2)cc1C [Compound 15, 4-(3,4-dimethylphenoxy)-3-(3-phenyl-acryloylamino)-N-(2-pyrrolidin-1-yl-ethyl)benzamide] | ≤ 100 | ≤ 100 |  |  |  | ≤ 100 | ≤ 0.1 | 
Cc1ccc(Oc2ccc(C(=O)NCCN3CCCC3)cc2NC(=O)c2ccc3ccccc3c2)cc1C [Compound 17, naphthalene-2-carboxylic acid [2-(3,4-dimethylphenoxy)-5-(2-pyrrolidin-1-yl-ethylcarbamoyl)phenyl]amide] | ≤ 100 |  |  |  |  | ≤ 100 |  | 
Cc1ccc(Oc2ccc(C(=O)NCCN3CCCC3)cc2NC(=O)[C@@H]2C[C@H]2c2ccccc2)cc1C (stereo in doubt) [Compound 16, 4-(3,4-dimethylphenoxy)-3-[(2-phenyl-cyclopropanecarbonyl)amino]-N-(2-pyrrolidin-1-yl-ethyl)benzamide] | ≤ 100 |  |  |  |  | ≤ 100 |  | 
Cc1ccc(Oc2ccc(C(=O)NCCN3CCCC3)cc2NC(=O)CCC2CCCC2)cc1C [Compound 12, 3-(3-cyclopentylpropionylamino)-4-(3,4-dimethylphenoxy)-N-(2-pyrrolidin-1-yl-ethyl)benzamide] | ≤ 100 |  |  |  |  | ≤ 100 |  | 
CCNC(=O)Nc1cc(C(=O)NCCN2CCCC2)ccc1Oc1ccc(C)c(C)c1 [Compound 18, 4-(3,4-dimethylphenoxy)-3-(3-ethylureido)-N-(2-pyrrolidin-1-yl-ethyl)benzamide] | ≤ 100 |  |  |  |  | ≤ 100 |  | 

Now from value to compound:

IC50 ([1]; threshold 100 μM or less) [µM] | Ki (rat MCH1 receptor; threshold 100 μM or less) [µM] | Ki (human MCH receptor; threshold 100 nM or less) [µM] | Ki (human MCH receptor; threshold 100 μM or less) [µM] | IC50 ([2]; threshold 100 nM or less) [µM] | IC50 ([2]; threshold 100 μM or less) [µM] | Ki (rat MCH1 receptor; threshold 100 nM or less) [µM] | IC50 ([1]; threshold 100 nM or less) [µM] | Structure (SMILES)
 | ≤ 100 | ≤ 0.1 | ≤ 100 | ≤ 0.1 | ≤ 100 |  |  | Cc1cccc(Oc2ccc(C(=O)NCCN3CCCC3)cc2NC(=O)Nc2cccc(F)c2)c1 [Compound 57]
≤ 100 | ≤ 100 |  |  | ≤ 0.1 | ≤ 100 | ≤ 0.1 | ≤ 0.1 | Cc1ccc(Oc2ccc(C(=O)NCCN3CCCC3)cc2NC(=O)Nc2ccc(Cl)cc2Cl)cc1C [Compound 31, 3-[3-(2,4-dichlorophenyl)ureido]-4-(3,4-dimethylphenoxy)-N-(2-pyrrolidin-1-yl-ethyl)benzamide]
 | ≤ 100 |  |  |  |  |  |  | O=C(CCc1ccccc1)Nc1cc(C(=O)NCCN2CCCC2)ccc1Oc1ccc2ccccc2c1 [Compound 22]
≤ 100 |  |  |  |  | ≤ 100 |  |  | Cc1ccc(Oc2ccc(C(=O)NCCN3CCCC3)cc2NC(=O)N(C)c2ccccc2)cc1C [Compound 43, 4-(3,4-dimethylphenoxy)-3-(3-methyl-3-phenylureido)-N-(2-pyrrolidin-1-yl-ethyl)benzamide]
 |  |  |  | ≤ 0.1 | ≤ 100 |  |  | O=C(Nc1cccc(F)c1)Nc1cc(C(=O)NCCN2CCCC2)ccc1Oc1ccccc1 [Compound 61, 3-[3-(3-fluorophenyl)ureido]-4-phenoxy-N-(2-pyrrolidin-1-yl-ethyl)benzamide]
≤ 100 |  |  |  |  | ≤ 100 |  |  | Cc1ccc(Oc2ccc(C(=O)NCCN3CCCC3)cc2NC(=O)N(c2ccccc2)c2ccccc2)cc1C [Compound 42, 4-(3,4-dimethylphenoxy)-3-(3,3-diphenylureido)-N-(2-pyrrolidin-1-yl-ethyl)benzamide]
≤ 100 | ≤ 100 |  |  | ≤ 0.1 | ≤ 100 | ≤ 0.1 | ≤ 0.1 | Cc1ccc(Oc2ccc(C(=O)NCCN3CCCC3)cc2NC(=O)Nc2cccc(F)c2)cc1C [Compound 39, 4-(3,4-dimethylphenoxy)-3-[3-(3-fluorophenyl)ureido]-N-(2-pyrrolidin-1-yl-ethyl)benzamide]
≤ 100 | ≤ 100 |  |  |  | ≤ 100 |  |  | COc1ccccc1NC(=O)Nc1cc(C(=O)NCCN2CCCC2)ccc1Oc1ccc(C)c(C)c1 [Compound 30, 4-(3,4-dimethylphenoxy)-3-[3-(2-methoxyphenyl)ureido]-N-(2-pyrroliidin-1-yl-ethyl)benzamide]
≤ 100 | ≤ 100 |  |  |  | ≤ 100 |  | ≤ 0.1 | Cc1ccc(Oc2ccc(C(=O)NCCN3CCCC3)cc2NC(=O)Nc2ccc(-c3ccccc3)cc2)cc1C [Compound 33]
 |  |  | ≤ 100 | ≤ 0.1 | ≤ 100 |  |  | O=C(Nc1cccc(F)c1)Nc1cc(C(=O)NCCN2CCCC2)ccc1Oc1ccc(Cl)c(Cl)c1 [Compound 52, 4-(3,4-dichlorophenoxy)-3-[3-(3-fluorophenyl)ureido]-N-(2-pyrrolidin-1-yl-ethyl)benzamide]
≤ 100 |  |  |  | ≤ 0.1 | ≤ 100 |  | ≤ 0.1 | O=C(Nc1cc(F)cc(F)c1)Nc1cc(C(=O)NCCN2CCCC2)ccc1Oc1ccc(Cl)c(Cl)c1 [Compound 66, 4-(3,4-dichlorophenoxy)-3-[3-(3,5-difluorophenyl)ureido]-N-(2-pyrrolidin-1-yl-ethyl)benzamide]
≤ 100 | ≤ 100 |  |  |  | ≤ 100 | ≤ 0.1 | ≤ 0.1 | Cc1ccc(Oc2ccc(C(=O)NCCN3CCCC3)cc2NC(=O)Nc2ccc(Oc3ccccc3)cc2)cc1C [Compound 32, 4-(3,4-dimethylphenoxy)-3-[3-(4-phenoxyphenyl)ureido]-N-(2-pyrrolidin-1-yl-ethyl)benzamide]
